In patent US20010053771A1, “USE OF GLUCOSAMINE AND CLUCOSAMINE DERIVATIVES FOR QUICK ALLEVIATION OF ITCHING OR LOCALIZED PAIN” (priority 1997, published 2001):

Experiments:
Assay type in all cases: in vivo, human
[1] = test system: patient suffering from sore throat caused by β-hemolytic streptococci; experiment: Spray treatment of a patient with sore throat (Example 1)
Experimental: Glucosamine or one or more of its derivatives was added in the appropriate amount to one of the following formulations. The compositions thus obtained were tested as described in the Examples. All percentages are by weight (w/w) unless otherwise indicated. A patient suffering from sore throat caused by β-hemolytic streptococci was treated with a water solution (formulation 1) of N-acetyl-glucosamine (8% w/w). The solution was sprayed into the mouth during 10 seconds in order to treat the infected area. Pain relief occurred already 20 seconds after application and lasted for at least 1,5 hour. 12 hours later the same patient was treated with spray containing glucosamine HCl (9% w/w and 20% glycerol and 10% alcohol in water). Pain relief occurred again very quickly, 36 seconds after, application and lasted for at least 2 hours.

[2] = test system: patient with a tendinitis due to the practice of bowling sport; experiment: Topical treatment of tendinitis due to bowling (Example 6); conditions: 6% (w/w) in composition 3
Experimental: Glucosamine or one or more of its derivatives was added in the appropriate amount to one of the following formulations. The compositions thus obtained were tested as described in the Examples. All percentages are by weight (w/w) unless otherwise indicated.
A patient with a tendinitis due to the practice of bowling sport was treated 2 days after the onset of pain with composition 3 containing 6% (w/w) N-acetyl D-glucosamine. Pain relief occurred 25 seconds later.

[3] = test system: patient suffering from tendinitis caused by practicing tennis; experiment: Topical cream treatment of tendinitis caused by tennis (Example 2); conditions: 5% (w/w) in formulation 2 cream, applied on the skin during 2 minutes; person
Experimental: Glucosamine or one or more of its derivatives was added in the appropriate amount to one of the following formulations. The compositions thus obtained were tested as described in the Examples. All percentages are by weight (w/w) unless otherwise indicated. A patient suffering from tendinitis caused by practicing tennis was treated with formulation 2 containing glucosamine sulphate 5% (w/w). The cream was normally applied on the skin during 2 minutes to allow the penetration. Pain relief occurred already after 50 seconds and lasted for at least 2 hours. After 12 hours the same patient was treated with formulation 2 without glucosamine. There was no pain relief after similar application.

[4] = test system: patient suffering from herpes simplex type I infection around the nose showing extensive fissures; experiment: Topical treatment of herpes simplex type I lesions around the nose (Example 3); conditions: 3% (w/w) in formulation 3
Experimental: Glucosamine or one or more of its derivatives was added in the appropriate amount to one of the following formulations. The compositions thus obtained were tested as described in the Examples. All percentages are by weight (w/w) unless otherwise indicated. A patient suffering from herpes simplex type I infection around the nose showing extensive fissures was treated with formulation 3 containing 3% glucosamine sulfate (w/w). Already after 30 seconds pain and itching relief occurred and lasted during 3 hours.

[5] = test system: patient suffering from pain in the knee caused by a light collision; experiment: Topical treatment of knee pain after a collision (Example 4); conditions: 10% (w/w) in formulation 3
Experimental: Glucosamine or one or more of its derivatives was added in the appropriate amount to one of the following formulations. The compositions thus obtained were tested as described in the Examples. All percentages are by weight (w/w) unless otherwise indicated. A patient suffering from pain in the knee caused by a light collision during a car accident was treated with formulation 3 containing 10% (w/w) glucosamine sulfate. Pain relief occurred after 50 seconds and lasted during 3 hours.

[6] = test system: child suffering from diaper allergy; experiment: Topical treatment of diaper allergy (Example 5); conditions: 5% (w/w) in composition 2; applications for 1 week, 3 times a day; male, 8 months
Experimental: Glucosamine or one or more of its derivatives was added in the appropriate amount to one of the following formulations. The compositions thus obtained were tested as described in the Examples. All percentages are by weight (w/w) unless otherwise indicated. […]

[7] = test system: patient with allergy for cats; experiment: Topical treatment of itching from cat allergy (Example 7); conditions: 5% (w/w) in composition 3
Experimental: Glucosamine or one or more of its derivatives was added in the appropriate amount to one of the following formulations. The compositions thus obtained were tested as described in the Examples. All percentages are by weight (w/w) unless otherwise indicated. A patient with allergy for cats (person) was confronted with a stroked cat (2 years old) in a closed room (6 m×4 m×3 m) during 10 minutes. 8 minutes later itching started all over the forehead and progressed after 15 minutes to the nose (external×internal). The patient was treated on the left side of the forehead with composition 3 and on the right side of the forehead with composition 3 containing 5% (w/w) glucosamine HCl. Itching completely disappeared after 45 seconds on the right side while there was still itching on the left side. The nose was also treated inside and outside with the active cream. Itching decreased drastically already after 50 seconds.

[8] = test system: patient suffering from arthritis urica; experiment: Topical treatment of arthritis urica (Example 9); conditions: 9% (w/w) in composition 2; right foot, 4 successive treatments with an interval of 10 minutes; person
Experimental: Glucosamine or one or more of its derivatives was added in the appropriate amount to one of the following formulations. The compositions thus obtained were tested as described in the Examples. All percentages are by weight (w/w) unless otherwise indicated. A patient suffering from arthritis urica, and not taking any medication, was treated with composition 2 containing 9% (w/w) glucosamine HCl all over the affected right foot by 4 successive treatments with an interval of 10 minutes.

[9] = test system: patient suffering from eczema (atopical) on the arm-bends; experiment: Topical treatment of atopical eczema (Example 10); conditions: 8% (w/w) in composition 3; left arm; person
Experimental: Glucosamine or one or more of its derivatives was added in the appropriate amount to one of the following formulations. The compositions thus obtained were tested as described in the Examples. All percentages are by weight (w/w) unless otherwise indicated. A patient suffering from eczema (atopical) (person) on the arm-bends was treated with composition 3 containing 8% (w/w) glucosamine HCl on the left arm and composition 3 on the right arm. Itching decreased drastically after 15 seconds and lasted during 2 hours only on the left arm. From the above it follows that the therapeutical compositions of the invention can be used to alleviate itching and pain which result from a variety of causes. The relief is obtained very quickly and lasts for a considerable period of time.

[10] = 8% w/w in water (formulation 1), sprayed into the mouth during 10 seconds, person
[11] = spray 9% w/w with 20% glycerol and 10% alcohol in water, same patient 12 hours later

CC(=O)N[C@H]1C(O)O[C@H](CO)[C@@H](O)[C@@H]1O (stereo partly drawn) [N-acetyl-glucosamine, N-acetyl D-glucosamine]
duration of pain relief [1, 10]: at least 1,5 hour
time to pain relief after application [1, 10]: 20 s
time to pain relief ([2]; 2 days after the onset of pain, person): 25 s
pain after repeated treatment ([2]; after 5 successive treatments every 2 hours): pain was completely reduced

N[C@H]1C(O)O[C@H](CO)[C@@H](O)[C@@H]1O.O=S(=O)(O)O (stereo partly drawn) [glucosamine sulfate, D-glucosamine sulfate]
duration of pain relief [3]: at least 2 hours
time to pain relief [3]: 50 s
closure of fissures ([4]; after 5 hours): most of the fissures were closed
duration of pain and itching relief ([4]; person): 3 h
time to pain and itching relief ([4]; person): 30 s
pain after repeated treatment ([5]; after 3 new successive treatments every 4 hours): the pain was completely gone
duration of pain relief ([5]; person): 3 h
time to pain relief ([5]; person): 50 s

Cl.N[C@H]1C(O)O[C@H](CO)[C@@H](O)[C@@H]1O (stereo partly drawn) [glucosamine HCl, D-glucosamine hydrochloride]
duration of pain relief [1, 11]: at least 2 hours
time to pain relief after application [1, 11]: 36 s
relief of itching and pains [6]: always immediate relief of itching and pains
time until itching decreased drastically ([7]; nose treated inside and outside): 50 s
time until itching completely disappeared ([7]; right side of the forehead, person): 45 s
duration of pain relief [8]: 4 h
pain relief [8]: Gradually strong pain relief occurred
duration of itching decrease [9]: 2 h
time until itching decreased drastically [9]: 15 s
